Laboratory results reported in paper PMC11124822, “Discovery and Anticancer Screening of Novel Oxindole-Based Derivative Bearing Pyridyl Group as Potent and Selective Dual FLT3/CDK2 Kinase Inhibitor” (Pharmaceuticals, 2024).

Experiments:
T-47D = assay: NCI-60 antiproliferative screen (SRB); format: cell-based, human; settings: Homo sapiens, T47D; 10 µM single dose, 48 h; T-47D (Breast); read-out: Growth inhibition (%)
[1] = system: NCI-60 human cancer cell lines; assay: NCI-60 screen, full panel summary; format: cell-based; settings: 10 µM single dose; for Mean Growth Percent: all NCI-60 cell lines; for inhibition at 10 µM: Homo sapiens, read-out: Range of Growth Inhibition on All Cells
Experimental: In a comprehensive test, compounds were assayed at a single dose concentration (10^−5 M) in the full panel of NCI-60 cancer cell lines.

LOX IMVI = assay: NCI-60 antiproliferative screen (SRB); format: cell-based, human; settings: Homo sapiens; 10 µM single dose, 48 h; LOX IMVI (Melanoma); read-out: Growth inhibition (%)
TK-10 = assay: NCI-60 antiproliferative screen (SRB); format: cell-based, human; settings: Homo sapiens; 10 µM single dose, 48 h; TK-10 (Renal); read-out: Growth inhibition (%)
BT-549 = assay: NCI-60 antiproliferative screen (SRB); format: cell-based, human; settings: Homo sapiens; 10 µM single dose, 48 h; BT-549 (Breast); read-out: Growth inhibition (%)
NCI-H460 = assay: NCI-60 antiproliferative screen (SRB); format: cell-based, human; settings: Homo sapiens; 10 µM single dose, 48 h; NCI-H460 (NSCLC); read-out: Growth inhibition (%)
HCT-15 = assay: NCI-60 antiproliferative screen (SRB); format: cell-based, human; settings: Homo sapiens; 10 µM single dose, 48 h; HCT-15 (Colon); read-out: Growth inhibition (%)
MDA-MB-435 = assay: NCI-60 antiproliferative screen (SRB); format: cell-based, human; settings: Homo sapiens; 10 µM single dose, 48 h; MDA-MB-435 (Melanoma); read-out: Growth inhibition (%)
HT29 = assay: NCI-60 antiproliferative screen (SRB); format: cell-based, human; settings: Homo sapiens, HT-29; 10 µM single dose, 48 h; HT29 (Colon); read-out: Growth inhibition (%)
SF-268 = assay: NCI-60 antiproliferative screen (SRB); format: cell-based, human; settings: Homo sapiens; 10 µM single dose, 48 h; SF-268 (CNS); read-out: Growth inhibition (%)
SN12C = assay: NCI-60 antiproliferative screen (SRB); format: cell-based, human; settings: Homo sapiens; 10 µM single dose, 48 h; SN12C (Renal); read-out: Growth inhibition (%)
786-0 = assay: NCI-60 antiproliferative screen (SRB); format: cell-based, human; settings: Homo sapiens; 10 µM single dose, 48 h; 786-0 (Renal); read-out: Growth inhibition (%)
SK-MEL-5 = assay: NCI-60 antiproliferative screen (SRB); format: cell-based, human; settings: Homo sapiens; 10 µM single dose, 48 h; SK-MEL-5 (Melanoma); read-out: Growth inhibition (%)
IGROV1 = assay: NCI-60 antiproliferative screen (SRB); format: cell-based, human; settings: Homo sapiens, IGROV-1; 10 µM single dose, 48 h; IGROV1 (Ovarian); read-out: Growth inhibition (%)
SK-OV-3 = assay: NCI-60 antiproliferative screen (SRB); format: cell-based, human; settings: Homo sapiens; 10 µM single dose, 48 h; SK-OV-3 (Ovarian); read-out: Growth inhibition (%)
SNB-19 = assay: NCI-60 antiproliferative screen (SRB); format: cell-based, human; settings: Homo sapiens; 10 µM single dose, 48 h; SNB-19 (CNS); read-out: Growth inhibition (%)
A549/ATCC = assay: NCI-60 antiproliferative screen (SRB); format: cell-based, human; settings: Homo sapiens; 10 µM single dose, 48 h; A549/ATCC (NSCLC); read-out: Growth inhibition (%)
ACHN = assay: NCI-60 antiproliferative screen (SRB); format: cell-based, human; settings: Homo sapiens; 10 µM single dose, 48 h; ACHN (Renal); read-out: Growth inhibition (%)
HS 578T = assay: NCI-60 antiproliferative screen (SRB); format: cell-based, human; settings: Homo sapiens; 10 µM single dose, 48 h; HS 578T (Breast); read-out: Growth inhibition (%)
NCI-H226 = assay: NCI-60 antiproliferative screen (SRB); format: cell-based, human; settings: Homo sapiens; 10 µM single dose, 48 h; NCI-H226 (NSCLC); read-out: Growth inhibition (%)
CCRF-CEM = assay: NCI-60 antiproliferative screen (SRB); format: cell-based, human; settings: Homo sapiens; 10 µM single dose, 48 h; CCRF-CEM (Leukemia); read-out: Growth inhibition (%)
K-562 = assay: NCI-60 antiproliferative screen (SRB); format: cell-based, human; settings: Homo sapiens, K562; 10 µM single dose, 48 h; K-562 (Leukemia); read-out: Growth inhibition (%)
EKVX = assay: NCI-60 antiproliferative screen (SRB); format: cell-based, human; settings: Homo sapiens; 10 µM single dose, 48 h; EKVX (NSCLC); read-out: Growth inhibition (%)
NCI-H322M = assay: NCI-60 antiproliferative screen (SRB); format: cell-based, human; settings: Homo sapiens; 10 µM single dose, 48 h; NCI-H322M (NSCLC); read-out: Growth inhibition (%)
HOP-92 = assay: NCI-60 antiproliferative screen (SRB); format: cell-based, human; settings: Homo sapiens; 10 µM single dose, 48 h; HOP-92 (NSCLC); read-out: Growth inhibition (%)
HL-60(TB) = assay: NCI-60 antiproliferative screen (SRB); format: cell-based, human; settings: Homo sapiens; 10 µM single dose, 48 h; HL-60(TB) (Leukemia); read-out: Growth inhibition (%)
COLO 205 = assay: NCI-60 antiproliferative screen (SRB); format: cell-based, human; settings: Homo sapiens; 10 µM single dose, 48 h; COLO 205 (Colon); read-out: Growth inhibition (%)
UACC-62 = assay: NCI-60 antiproliferative screen (SRB); format: cell-based, human; settings: Homo sapiens; 10 µM single dose, 48 h; UACC-62 (Melanoma); read-out: Growth inhibition (%)
NCI-H23 = assay: NCI-60 antiproliferative screen (SRB); format: cell-based, human; settings: Homo sapiens; 10 µM single dose, 48 h; NCI-H23 (NSCLC); read-out: Growth inhibition (%)

Structure (SMILES)	inhibition at 10 µM (T-47D)	Positive Cytostatic Effect (cell lines with percent growth from 0 to 50 / total number of cell lines) [1]	Positive Cytotoxic Effect (cell lines with percent growth of <0 / total number of cell lines) [1]	Sensitive/Total Cell Lines [1]	Mean Growth Percent [1]	inhibition at 10 µM (LOX IMVI)	inhibition at 10 µM (TK-10)	inhibition at 10 µM (BT-549)	melting point	inhibition at 10 µM (NCI-H460)	inhibition at 10 µM (HCT-15)	inhibition at 10 µM (MDA-MB-435)	inhibition at 10 µM (HT29)	inhibition at 10 µM (SF-268)	inhibition at 10 µM (SN12C)	inhibition at 10 µM (786-0)	inhibition at 10 µM (SK-MEL-5)	inhibition at 10 µM (IGROV1)	inhibition at 10 µM (SK-OV-3)	inhibition at 10 µM (SNB-19)	also measured
O=C1Nc2ccccc2C1=Cc1ccc(OCc2ccccc2)cc1 (mixture of isomers) [Compound 5a, (E/Z)-3-[4-(Benzyloxy)benzylidene] indolin-2-one]	0.85%	0/59	0/59	0/59	−1.00	-7.76%	-8.25%	-5.74%	220 to 223 °C	-8.64%	0.04%	-2.33%	-6.64%	-1.74%	6.16%	3.67%	1.96%	-9.53%	-5.78%	2.17%	antiproliferative activity (in words) [1]: weak antiproliferative activity; inhibition at 10 µM [1]: -16.2 to 15.8%; inhibition at 10 µM (A549/ATCC): -3.26%; inhibition at 10 µM (ACHN): -4.27%; inhibition at 10 µM (HS 578T): -6.13%; inhibition at 10 µM (NCI-H226): 4.45%; inhibition at 10 µM (CCRF-CEM): 0.52%; inhibition at 10 µM (K-562): 11.8%; inhibition at 10 µM (EKVX): 0.69%; inhibition at 10 µM (NCI-H322M): 0.44%; inhibition at 10 µM (HOP-92): -7%; inhibition at 10 µM (HL-60(TB)): 11.5%; inhibition at 10 µM (COLO 205): -13.1%; inhibition at 10 µM (UACC-62): 6.11%; inhibition at 10 µM (NCI-H23): -2.42%
O=C1Nc2ccc(F)cc2C1=Cc1ccc(OCc2ccccc2)cc1 (mixture of isomers) [Compound 5b, (E/Z)-3-[4-(Benzyloxy)benzylidene]-5-fluoroindolin-2-one]	3.79%	0/57	0/57	0/57	1.62	-6.24%	4.82%	-6.03%	244 to 248 °C	-0.94%	3.51%	5.59%	2.38%	5.43%	0.27%	0.43%	-0.59%	2.92%	0.16%	1.26%	antiproliferative activity (in words) [1]: weak antiproliferative activity; inhibition at 10 µM [1]: -10.8 to 9.53%; inhibition at 10 µM (A549/ATCC): 3.9%; inhibition at 10 µM (ACHN): -7.3%; inhibition at 10 µM (HS 578T): -0.32%; inhibition at 10 µM (NCI-H226): 9.53%; inhibition at 10 µM (CCRF-CEM): -10.8%; inhibition at 10 µM (K-562): 7.19%; inhibition at 10 µM (EKVX): 0.65%; inhibition at 10 µM (NCI-H322M): 2.81%; inhibition at 10 µM (HOP-92): 4.77%; inhibition at 10 µM (HL-60(TB)): 7.92%; inhibition at 10 µM (COLO 205): 1.92%; inhibition at 10 µM (UACC-62): 4.38%; inhibition at 10 µM (NCI-H23): 1.73%
O=C1Nc2ccc(F)cc2C1=Cc1ccc(OCc2ccccn2)cc1 (mixture of isomers) [Compound 5f, (E/Z)-5-fluoro-3-[4-(pyridin-2-ylmethoxy)benzylidene]indolin-2-one]	60.7%	3/59	0/59	3/59	13.74	12.6%	4.47%	13.2%	226 to 228 °C	11.6%	10.7%	-2.77%	-0.51%	29.9%	4.04%	16.6%	-5.85%	6.35%	3.75%	12.9%	The Most Sensitive Cell Line [1]: NCI-H522; inhibition at 10 µM (A549/ATCC): -1.04%; inhibition at 10 µM (ACHN): 23.8%; inhibition at 10 µM (HS 578T): 21.9%; inhibition at 10 µM (NCI-H226): 6.67%; inhibition at 10 µM (CCRF-CEM): 5.79%; inhibition at 10 µM (K-562): 14.6%; inhibition at 10 µM (EKVX): 15.8%; inhibition at 10 µM (NCI-H322M): 3.29%; inhibition at 10 µM (HOP-92): 32.9%; inhibition at 10 µM (HL-60(TB)): 13.9%; inhibition at 10 µM (COLO 205): -10.8%; inhibition at 10 µM (UACC-62): 9.94%; inhibition at 10 µM (NCI-H23): 28%
